Measurements published in ChEMBL document CHEMBL1949581, “Anion inhibition studies of an α-carbonic anhydrase from the living fossil Astrosclera willeyana” (Bioorg Med Chem Lett, 2012).

Molecular target: T1, Astrosclerin-3 (Astrosclera willeyana, UniProt A6YCJ1)
T1 sequence (A6YCJ1 whole entry): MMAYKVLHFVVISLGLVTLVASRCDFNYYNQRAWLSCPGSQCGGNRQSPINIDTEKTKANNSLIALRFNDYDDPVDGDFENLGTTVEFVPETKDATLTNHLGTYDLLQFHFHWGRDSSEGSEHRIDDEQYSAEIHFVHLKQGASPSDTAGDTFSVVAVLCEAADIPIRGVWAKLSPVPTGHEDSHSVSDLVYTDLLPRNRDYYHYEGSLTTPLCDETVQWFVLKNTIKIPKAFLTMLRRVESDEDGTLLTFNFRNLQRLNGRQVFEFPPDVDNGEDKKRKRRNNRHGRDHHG
Assay: biochemical
Assay type: cell-based
Description: Inhibition of Astrosclera willeyana recombinant GST-tagged astrosclerin 3 expressed in Escherichia coli BL21-DE3-RIPL cells preincubated for 15 mins measured for 10 to 100 secs by stopped flow CO2 hydration assay

Row | SMILES | Ki [µM]
1 | CCN(CC)C(=S)S [DITIOCARB SODIUM] | 450
2 | OB(O)c1ccccc1 [PHENYLBORONIC ACID] | 9.6
3 | [N-]=[N+]=[N-] [SODIUM AZIDE] | 27800
4 | O=C([O-])O.[Na+] [SODIUM BICARBONATE] | 22800
5 | O=S([O-])O.[Na+] [SODIUM BISULFITE] | 320
6 | [Br-].[Na+] [SODIUM BROMIDE] | 30600
7 | O=C([O-])[O-].[Na+].[Na+] [SODIUM CARBONATE] | 13500
8 | S=C(S)S [SODIUM CARBONOTRITHIOATE] | 710
9 | [Cl-].[Na+] [SODIUM CHLORIDE] | 460
10 | N#CO [SODIUM CYANATE] | 230
11 | [F-].[Na+] [SODIUM FLUORIDE] | 940
12 | S [SODIUM HYDROSULFIDE] | 490
13 | O=S(=O)(O)NS(=O)(=O)O [SODIUM IMINODISULFONATE] | 660
14 | [I-].[Na+] [SODIUM IODIDE] | 10400
15 | O=[N+]([O-])[O-].[Na+] [SODIUM NITRATE] | 76400
16 | O=NO [SODIUM NITRITE] | 63800
17 | [O-][Cl+3]([O-])([O-])O [SODIUM PERCHLORATE] | 5110
18 | O=S(=O)(O)OOS(=O)(=O)O [SODIUM PERSULFATE] | 70600
19 | O=P(O)(O)OP(=O)(O)O [SODIUM PYROPHOSPHATE] | 57700
20 | O=S(=O)(O)OS(=O)(=O)O [SODIUM PYROSULFATE] | 88100
21 | O=[Se](=O)(O)O [SODIUM SELENATE] | 880
22 | N#C[SeH] [SODIUM SELENOCYANATE] | 770
23 | NS(=O)(=O)O [SODIUM SULFAMATE] | 13
24 | O=S(=O)([O-])[O-].[Na+].[Na+] [SODIUM SULFATE ANHYDROUS] | 76300
25 | O=[Te](=O)(O)O [SODIUM TELLURATE] | 750
26 | O=BOB(O)OB(O)OB=O [SODIUM TETRABORATE] | 21900
27 | F[B-](F)(F)F.[Na+] [SODIUM TETRAFLUOROBORATE] | > 200000
28 | NS(N)(=O)=O [SULFAMIDE] | 8.9
